From patent publication US11938129B2, “Methods and compositions for the treatment of vascular disease” (THE GENERAL HOSPITAL CORPORATION, priority 2018, dated 2024)
Entries after “also recorded” stand apart in the source; their conditions may differ.

Experiments:
H3K27me3 = H3K27me3 staining in aortas of treated Fbn1C1039G/+ mice; format: in vivo, mouse; conditions: compared to control or losartan treated mice
Protocol: (§1) Latex was injected into the left ventricular apex under low pressure until it was visible in the femoral artery. Animals were then fixed in Formalin (10%) for 24 hours before transfer to 70% ethanol for dissection and storage. Aortas were then removed from the animals or dissected in situ for photography prior to paraffinization and sectioning (10 pM). Slides were produced for tissue staining or stained with standard stains including H&E staining, collagen deposition (Trichrome Stain (Masson) Kit, Sigma, USA), elastin (Verhoeff-Van Gieson, Thermo Scientific, MI, USA) or F-actin (ActinGreen™ 488 ReadyProbes, ThermoFisher Scientific, USA) for quantitative analysis. Elastin integrity score was rated by blinded observers and graded on an arbitrary scale of 5 (indicating high quality elastic fiber) to 1 (indicating severe elastin fragmentation). For nuclear staining aortas from human and mice were cryosectioned using OCT standard protocol as described previously (Fischer et al., 2008). Cohorts of 8-week-old wild-type or Fbn1cw3gGi+ mice were treated with oral administration in drinking water of either Losartan or GSK343 for 20 weeks (FIG. 5). […] Then 200 mL of drinking water was supplemented with 250 pL of GSK343 stock solution. […] Aortic dimensions were monitored monthly by echocardiograms as mentioned above.

VSMC phenotypic markers = experiment: expression of VSMC phenotypic markers in aortas of treated Fbn1C1039G/+ mice; format: in vivo, mouse; conditions: aortas of Fbn1C1039G/+ mice treated from two to six months
Protocol: Total RNA was prepared from tissue or primary cells using RNeasy kit (Qiagen) following the manufacturer's protocol. The cDNA was prepared by reverse transcription, and expression of SMC contractile genes were analyzed by qRT-PCR on SYBR green system (Applied Biosystem, Foster city, CA). 50 pL of plasma from wild-type or Fbn1cl° 39G1+ mice were used to prepare total RNA as mentioned above. Expression results were analyzed by the ddCT method and GAPDH (encoding glyceraldehyde-3-phosphate dehydrogenase) was used as a housekeeping gene. Fold change were calculated by taking the average over all the control samples as the baseline. […] The supernatant was removed and the vesicular fraction was resuspended with 750 pL of TRizol reagent followed by RNA extraction using the RNeasy kit (Qiagen) according to the manufacturer's protocol. Cohorts of 8-week-old wild-type or Fbn1cw3gGi+ mice were treated with oral administration in drinking water of either Losartan or GSK343 for 20 weeks (FIG. 5). […] Then 200 mL of drinking water was supplemented with 250 pL of GSK343 stock solution. Control group for either drug treatment was given with equal volumes of sterile water. Bottles containing either losartan or GSKS343 were replaced with fresh water supplied with drugs every 3 days. For experiments described in FIG. 5A-5C, 16-week-old wild-type or Fbnicw3gGi+ mice were treated for 8 weeks and as described above. Additionally, a group of mice were given a combination of both losartan and GSK343 at the same concentrations as of other single drug treatments. Aortic dimensions were monitored monthly by echocardiograms as mentioned above.

TGF-β signaling = experiment: TGF-β activity by phosphorylation of Smad2 or Erk1 in aortas of treated mice; format: in vivo, mouse; conditions: aortic tissue of treated Fbn1C1039G/+ mice
Protocol: as §1

[1] = system: aortic aneurysm in Fbn1C1039G/+ mice; experiment: experimental aortic aneurysm in Fbn1C1039G/+ mice: echocardiographic aortic dimensions; format: in vivo, mouse; conditions: Fbn1C1039G/+ mice treated from two to six months of life, drinking water
From the text: Dimensions from each animal represent averages of measurements made on still frames in systole of the maximal internal diameter of the aortic valve annulus, aortic sinuses, sinotubular junction, or ascending aorta by a cardiologist blinded to genotype. The aorta was imaged using a standard parasternal long axis view. Based on historic controls, the mean diameter of the wild type aortic root at 4 months of life is 1.73+/-0.2 mm while in our disease model (Fbn1ci°[…]/+) the mean diameter is 2.15+/-0.3 mm. […] Nair hair removal cream was used on all mice the day prior to echocardiograms. All echocardiograms were performed on awake, unsedated mice using the Visualsonics Vevo imaging system and a 30 MHz transducer. All CT images were acquired using an Inveon small animal micro CT (Siemens Medical Solutions Inc., Malven, Pa.). All mice received intravenous iodinated contrast (Isovue-370, Bracco Diagnostic Inc.) at 20 pL/min during the scan. […] Images were visualized and analyzed in OsiriX software. Cohorts of 8-week-old wild-type or Fbn1cw3gGi+ mice were treated with oral administration in drinking water of either Losartan or GSK343 for 20 weeks (FIG. 5). […] Then 200 mL of drinking water was supplemented with 250 pL of GSK343 stock solution. […] Aortic dimensions were monitored monthly by echocardiograms as mentioned above.

[2] = system: aortic wall of Fbn1C1039G/+ mice; experiment: histologic analysis of aortas of treated Fbn1C1039G/+ mice; format: in vivo, mouse; conditions: aortas of Fbn1C1039G/+ mice treated from two to six months
Protocol: Latex was injected into the left ventricular apex under low pressure until it was visible in the femoral artery. Animals were then fixed in Formalin (10%) for 24 hours before transfer to 70% ethanol for dissection and storage. Aortas were then removed from the animals or dissected in situ for photography prior to paraffinization and sectioning (10 pM). Slides were produced for tissue staining or stained with standard stains including H&E staining, collagen deposition (Trichrome Stain (Masson) Kit, Sigma, USA), elastin (Verhoeff-Van Gieson, Thermo Scientific, MI, USA) or F-actin (ActinGreen™ 488 ReadyProbes, ThermoFisher Scientific, USA) for quantitative analysis. Elastin integrity score was rated by blinded observers and graded on an arbitrary scale of 5 (indicating high quality elastic fiber) to 1 (indicating severe elastin fragmentation). For nuclear staining aortas from human and mice were cryosectioned using OCT standard protocol as described previously (Fischer et al., 2008). Cohorts of 8-week-old wild-type or Fbn1cw3gGi+ mice were treated with oral administration in drinking water of either Losartan or GSK343 for 20 weeks (FIG. 5). […] Then 200 mL of drinking water was supplemented with 250 pL of GSK343 stock solution. Control group for either drug treatment was given with equal volumes of sterile water. Bottles containing either losartan or GSKS343 were replaced with fresh water supplied with drugs every 3 days. For experiments described in FIG. 5A-5C, 16-week-old wild-type or Fbnicw3gGi+ mice were treated for 8 weeks and as described above. Additionally, a group of mice were given a combination of both losartan and GSK343 at the same concentrations as of other single drug treatments. Aortic dimensions were monitored monthly by echocardiograms as mentioned above.

SM22a = experiment: immunostaining of SM22a protein in aortas of treated Fbn1C1039G/+ mice; format: in vivo, mouse; conditions: compared to control Fbn1C1039G/+ mice
Protocol: as §1

MMP2 and MMP9 activity = experiment: in vivo MMP activity (MMPSense 750 FAST) after carotid ligation; design: species or system mouse; conditions: 24 h post injection, ligated mice
Protocol: Mice were tail vein injected with 600 uL of MMPSense 750 FAST, a near-infrared fluorescence sensor for MMP2 and MMP9 activity, (PerkinElmer, USA). Mice were sacrificed 24 h post injection and aortas were dissected and analyzed using a Kodak image station 4000MM Pro for macroscopic fluorescence reflectance molecular imaging.
(§2) Cohorts of 10-week-old wild-type mice were treated with oral administration in drinking water of GSK343 24 hrs before left carotid ligation and following treatment for 3 weeks. GSK343 inhibitor (25 mg) was dissolved in 1 mL of DMSO to obtain a stock solution of 46 mM. Then, 250 ml of drinking water was supplemented with 250 pl of GSK343 stock solution. Control group for was given with equal volumes of sterile water. Bottles containing GSK343 were replaced with fresh water supplied with drug every 3 days. For Malatl antisense LNA treatments, cohorts of 10-week-old wild-type mice were injected with 15 nmol in saline solution 24 hrs before left carotid ligation following by a second injection 7 days post-ligation.

Mmp9 = experiment: immunofluorescence of Mmp9 in ligated carotid; format: in vivo, mouse; conditions: arterial media and intima of carotid arteries
Protocol: (§3) All mice used in this study were cared for under strict compliance with the Partners Institutional Animal Care and Use Committee (IACUC), regulated by the United States Public Health Service (USPHS). Carotid ligations were performed in 10 week old mice. Briefly, animals were anesthetized using intraperitoneal ketamine/xylazine (80 and 12 mg/kg, respectively) followed by a small incision in the neck to expose the carotid artery. Then the left carotid was ligated at the carotid bifurcation level using a 8-0 silk suture. At 21 days mice were sacrificed and carotids were collected for histological analysis. Approximately 98% of wild type mice developed stenotic lesions. Mice that developed thrombosis of the ligated carotid were excluded from the study (−1¬2%). Malatl knockout mice were kindly provided by Dr. David Spector (Cold Spring Harbor, N.Y.). Hdac9 flox/flox/Talgn-cre mice were generated as previously reported (10). […]
(§4) Left and right carotids were cryosectioned using OCT standard protocol and sectioning. […] Slides 1, 5, 10, and 15 were H&E stained for quantification of neointima. For quantification of the neointima, internal and external elastic lamina perimeters and medial thickness from 4 quadrants were measured and averaged using Image J software from the National Institutes of Health (NIH). […]

Hdac9 = experiment: immunofluorescence of Hdac9 in ligated carotid; format: in vivo, mouse; conditions: arterial media and intima of carotid arteries
Protocol: as §3, §4

[3] = system: neointimal formation in ligated carotid; experiment: murine carotid artery ligation model: neointimal formation and stenosis (histology); format: in vivo, mouse; conditions: wild-type mice, left carotid ligation, 21 days; GSK343 in drinking water from 24 hrs before ligation for 3 weeks; GapmeR 15 nmol 24 hrs before and 7 days post-ligation
Protocol: as §3, §4

a-SMA and SM22a = experiment: immunofluorescence of contractile proteins in ligated carotids; format: in vivo, mouse; conditions: ligated carotids of treated mice
Protocol: All mice used in this study were cared for under strict compliance with the Partners Institutional Animal Care and Use Committee (IACUC), regulated by the United States Public Health Service (USPHS). Carotid ligations were performed in 10 week old mice. Briefly, animals were anesthetized using intraperitoneal ketamine/xylazine (80 and 12 mg/kg, respectively) followed by a small incision in the neck to expose the carotid artery. Then the left carotid was ligated at the carotid bifurcation level using a 8-0 silk suture. At 21 days mice were sacrificed and carotids were collected for histological analysis. Approximately 98% of wild type mice developed stenotic lesions. Mice that developed thrombosis of the ligated carotid were excluded from the study (−1¬2%). Malatl knockout mice were kindly provided by Dr. David Spector (Cold Spring Harbor, N.Y.). Hdac9 flox/flox/Talgn-cre mice were generated as previously reported (10). Ezh2 fl/fl/ (STOCK Ezh2tm2Sho/J) and Myh11-cre-GFP (B6.Cg-Tg(Myh11-cre,-EGFP)2Mik/J) were crossed to generate smooth muscle cell-Ezh2 deficient mice. All above mice and wild-type mice (C57BL/6J) were purchased from Jackson laboratory. For tissue analysis, animals were euthanized through inhalational isoflurane (Sigma, St, Louis, Mo.) prior to tissue collection. All carotid ligation (left carotid) procedures were performed at 10 weeks of age. All experiments were performed on male and female animals at a 1:1 ratio.
Left and right carotids were cryosectioned using OCT standard protocol and sectioning. The right carotid artery was unligated and served as an internal control. Neoinitima analysis was performed from hematoxylin and eosin (H & E) stained horizontal cross-sections embedded in Optimal Cutting Temperature compound (OCT). Briefly, the distal 0.2 mm of carotid from the ligation suture site were discarded followed by generation of 20 slides (10 pM). Slides 1, 5, 10, and 15 were H&E stained for quantification of neointima. For quantification of the neointima, internal and external elastic lamina perimeters and medial thickness from 4 quadrants were measured and averaged using Image J software from the National Institutes of Health (NIH). Slides 2-4, 6-9, and 11-14 were used for immunofluorescence staining.
as §2, with “For Malatl antisense LNA treatments, cohorts of 10-week-old wild-type mice were injected with 15 nmol in saline solution 24 hrs before left carotid ligation following by a second injection 7 days post-ligation.” left out

FAK = experiment: immunofluorescence of p-FAK in ligated carotid; format: in vivo, mouse; conditions: media and intima of carotid arteries
Protocol: as §3, §4

PDGFR = experiment: immunofluorescence of p-PDGFR in ligated carotid; format: in vivo, mouse; conditions: media and intima of carotid arteries
Protocol: as §3, §4

| Compound | H3K27me3 staining / aortic medial H3K27me3 modifications (H3K27me3) | synthetic markers (Col1a1, Col3a1, Gja1, Mmp2) (VSMC phenotypic markers) | TGF-β activity as assessed by phosphorylation of Smad2 or Erk1 protein (TGF-β signaling) | aortic dimensions [1] | aortic architecture and filamentous actin content [2] | elastin integrity [2] | SM22a protein expression (immunostaining of aortas) (SM22a) | activity of MMPs (MMP2 and MMP9 activity) | accumulation of Mmp9 (Mmp9) | accumulation of Hdac9 (Hdac9) | extent of the stenotic response / neointimal formation [3] | expression of contractile proteins such as a-SMA and SM22a (a-SMA and SM22a) | phosphorylation of FAK (FAK) | phosphorylation of PDGFR (PDGFR) |
| --- | --- | --- | --- | --- | --- | --- | --- | --- | --- | --- | --- | --- | --- | --- |
| CCCCc1nc(Cl)c(CO)n1Cc1ccc(-c2ccccc2-c2nnn[n-]2)cc1.[K+] [Losartan] | did not | better ability to decrease | reduced | ability to improve aortic dimensions | improvement | improve elastin integrity overall | recovery of SM22a protein expression |  |  |  |  |  |  |  |
| GapmeR-Malatl: GapmeR antisense oligonucleotide against MALAT1, GTCACAATGCATTCTA (SEQ ID NO: 1) (LNA gapmer, pattern not given here) |  |  |  |  |  |  |  | Inhibition of Mmp activity; also recorded: inhibited the activity of MMPs | decreased accumulation | decreased accumulation | significant inhibition of neointimal formation; also recorded: dramatically improved the extent of the stenotic response | improved the expression of contractile proteins | dramatic reduction | dramatic reduction |
